We go through 2 compounds from paper PMC2642983 (AIDS (London, England), 2009).

The subject of data set [1] is HIV RNA in the CSF. Nature of the data set: Detectable HIV RNA in CSF by CSF atazanavir detectability. In kind it is in vivo.
The conditions of data set [2]: cited from earlier work.
In the next data set the test system is wild-type HIV. The note with it: estimated with no protein (protein-free medium); cited from earlier work.
The conditions of data set [3]: for CSF concentrations fold lower than plasma concentrations: even with ritonavir boosting.
A short description of data set [4]: Population pharmacokinetic modelling. The note with it: for CSF penetration (% of plasma concentration): modeled estimate. In kind it is in vivo, human.
For the next data set, the system named is plasma proteins. To be noted: no reference given; cited from earlier work.
The test system of data set [5] is HIV RNA in the CSF. The note with it: over 3 weeks, all 13 participants receiving monotherapy; cited from earlier work.
The mark [6] stands for this setting: atazanavir with ritonavir, listed as atazanavir.

Where two headings read alike, the source gives them in different places. Marks after values point to notes of the source that are not given here. Bounds are passed on as bounds.

For orientation: Vd/F means the volume of distribution divided by bioavailability. By half-life is commonly meant how long it takes for the measured level to halve. Read a high half-life as slow loss. As to `COC(=O)N[C@H](C(=O)N[C@@H](Cc1ccccc1)[C@@H](O)CN(Cc1ccc(-c2ccccn2)cc1)NC(=O)[C@@H](NC(=O)OC)C(C)(C)C)C(C)(C)C` [Atazanavir, atazanavir], in the data set with HIV RNA in the CSF [1] (12/60 participants with more than 5 ng/ml atazanavir in the CSF, P = 0.13), the “participants with measurable CSF HIV RNA” value is reported as 20%. For the same compound, the “participants with detectable (>50 copies/ml) HIV RNA in the CSF” value in the data set with HIV RNA in the CSF [1] (seven of 19 participants with no measurable atazanavir in the CSF) is recorded as 37%. The “atazanavir CSF concentrations, average % of plasma concentrations” value in data set [2] (in vivo) is reported as 0.9%. In data set [2] (seven HIV-infected patients), the “CSF atazanavir concentrations as % of plasma concentrations” value is “approximately 1%”. Also, the “wild-type IC50” value in the data set on wild-type HIV was 1 ng/mL. In addition, the “CSF specimens with concentrations near the protein-free IC50 (<5 ng/ml)” value in data set [3] (11/67, after excluding probable nonadherence) is 16%. Also, in data set [3] (<5 ng/ml, 19 of 79 samples), the “CSF samples with undetectable atazanavir” value was determined as 24%. Further, the “observed CSF concentrations” value in data set [3] (as summarised in the discussion) came out at 10 ng/mL. Also, the “CSF concentrations fold lower than plasma concentrations” value is “about 100 fold” in data set [3] and 100 fold in data set [3] (listed as atazanavir). Besides, in data set [3] (human, CSF, oral), the Kp was less than 0.01. For the same compound, the “Median (interquartile range) CSF concentration” value was 10.3 (<5–21.1) ng/ml in data set [3] (with ritonavir) and 7.9 (6.6–22) ng/ml in data set [3] (without ritonavir). In addition, the “Median (range) CSF concentration” value in data set [3] (with ritonavir, 68 CSF samples) is given as 10.3 (<5–38) ^† ng/ml; in data set [3] (without ritonavir, 11 CSF samples) it was 7.9 (<5–40) ng/ml. Further, the “Intersubject variability of ke” value in data set [4] (atazanavir with ritonavir) is 17%. Also, the “Residual variability of CSF concentrations” value in data set [4] (atazanavir with ritonavir) and in data set [4] (setting [6]) was 26% in each case. For the same compound, the “Residual variability of plasma concentrations” value in data set [4] (atazanavir with ritonavir) and in data set [4] (setting [6]) was 49% throughout. The oral clearance in data set [4] (atazanavir with ritonavir, corresponds to ke and Vd/F) amounted to 9.4 L/h. Besides, the “CSF penetration (% of plasma concentration)” value in data set [4] (atazanavir with ritonavir) is given as 0.0074 (0.74%); in data set [4] (setting [6]) it was 0.74%. The Vd/F in data set [4] (human, plasma, oral) worked out at 209 L. Also, in data set [4] (human, plasma, oral), the half-life was 15 h. Besides, the k el in data set [4] (human, plasma, oral) is 1.25e-05 s⁻¹. In the data set with plasma proteins, the “bound to plasma proteins” value is 86%. Moreover, the “free (not bound to plasma proteins)” value with plasma proteins is on record as 14%. In addition, the “median (IQR) plasma concentration” value was 315 (280–432) ng/ml (11 samples with no detectable CSF atazanavir but measurable plasma atazanavir) and 1743 (925–2919) ng/ml (corresponding to the 60 CSF samples with detectable atazanavir). In addition, the “estimated free concentration of atazanavir in plasma” value (14% of 1510 ng/ml) is on record as “approximately 210 ng/ml”. In addition, under “<0.13 μg/ml, 17 of 149 samples”, the “plasma samples with undetectable atazanavir” value was 11%. Besides, the “Median (interquartile range) plasma atazanavir concentration” value reads like this: (atazanavir alone, without ritonavir) 523 (283–1344) ng/ml; (with concomitant ritonavir) 1278 (525–2265) ng/ml. Besides, the “Median (range) plasma concentration” value is on record as 1278 (<128–5295) ^* ng/ml (with ritonavir 100 mg daily, 130 plasma samples) and 523 (<128–6200) ng/ml (without ritonavir, 18 plasma samples, 300 or 400 mg atazanavir daily).

lopinavir/ritonavir: the “change in CSF HIV RNA levels” value with HIV RNA in the CSF [5] is reported as “substantial declines in CSF HIV RNA levels”.
